Patent publication US20240116984A1, “MODIFIED PEPTIDES FOR THE INHIBITION OF ABNORMAL TAU ACCUMULATION” (University of Notre Dame du Lac, priority 2021, published 2024)
Entries after “also recorded” stand apart in the source; their conditions may differ. Starred links: 1 amine or outer side, 2 acyl side, 3 side chain; linkers in the order of their positions; H or OH if unused. Non-standard residues stand in square brackets, D forms with d. Residues, ends and D or L forms follow the SMILES beside them. Primed or numbered codes have the meaning given here. *: point of attachment. aIle′ = Ile with backbone N-amino (N-aminated amide nitrogen), CC[C@H](C)[C@@H](C(=O)[*:2])N(N)[*:1]; aVal = Val with backbone N-amino (N-aminated amide nitrogen), CC(C)[C@@H](C(=O)[*:2])N(N)[*:1]; X2 = NN([C@@H](Cc1ccc(O)cc1)C(=O)[*:2])[*:1]; X1 = CC[C@H](C)[C@@H](C(=O)[*:2])N(N)[*:1]; N(NH2)LysNH2 = NCCCC[C@@H](C(N)=O)N(N)*; X3 = CC(C)[C@@H](C(=O)[*:2])N(N)[*:1]; N(NH2)Lys = NCCCC[C@H](NN)C(=O)O

Experiments:
[1] = system: Recombinant tauP301L (0N4R); experiment: Thioflavin T (ThT) fluorescence aggregation assay of recombinant tauP301L; format: biochemical, human; conditions: Tau 10 μM : inhibitor 20 μM (2-fold molar excess), heparin, 48 h
Method: Recombinant tauP301L (10 μM final concentration) and NAP inhibitors 20 μM final concentration) were mixed in an aggregation buffer (100 mM sodium acetate, 10 μM ThT, 10 μM heparin, 2 mM DTT, 0.5% DMSO, pH 7.4) in a 96-well clear bottom black plate with a final reaction volume of 200 μL. The plate was then sealed with a clear sealing film and allowed to incubate at 37° C. with continuous shaking in a Biotek Synergy H1 microplate reader. An automated method was used to carry out ThT fluorescence measurements at an excitation wavelength of 444 nm and an emission wavelength of 485 nm at an interval of every 5 minutes for 48 hours. Experiments were carried out in technical replicates on at least two different days. Every experiment included control wells that lacked tau301L, heparin, or NAPs. The average of tau-only (no heparin) wells was used to subtract background fluorescence and the average of the first and last 10 data points of tau+heparin wells, after blank subtraction, was used to normalize the data. All data plots were generated with SigmaPlot.

[2] = system: tauP301L fibrils; experiment: Transmission electron microscopy of heparin-induced tauP301L fibrils; format: biochemical, human; conditions: two-fold molar excess of inhibitor, 96 h
Method: For analyzing fibrils by transmission electron microscopy (TEM), aggregation was carried out under conditions similar to the assay above but with ThT excluded and a final reaction volume of 100 μL Samples were incubated in a microcentrifuge tube for 4 days at 37° C. with a mixing speed of 100 rpm. A 10 μL aliquot of the sample was then applied to 400-meshed formvar/carbon-coated copper grids and negative stained with 2% uranyl-acetate. Micrographs were taken on a JEOL 2011 TEM at 200 kV.

[3] = system: HEK293 cells stably expressing tau-RD (P301L/V337M)-YFP; experiment: Cellular seeding assay, seeding by monomeric tau co-incubated with NAPs; format: cell-based, human; conditions: 0.19 μM Tau, 4 days co-incubation, cells 48 h
Method: (§1) HEK293 cells stably expressing tau-RD (LM)-YFP were cultured in DMEM media containing 10% FBS, 1% penicillin/streptomycin, and 1% Glutamax™ (Gibco) in a 75 cm^2 cell culture flask under 5% CO2 at 37° C. For each experiment, cells were plated at a density of 15000 cells/well into 96 well tissue culture plates.
Monomeric tauP301L was co-incubated with NAPs for 4 days in an aggregation buffer at 37° C. (see above section). Following incubation, the reaction mixture was diluted in low serum Opti-MEM® media (Gibco), mixed with lipofectamine 2000 in 20:1 ratio (complex:lipofectamine) and allowed to incubate for an additional 20 minutes at RT. A mixture of 0.19 μM of Tau+1.9 μM or 0.009 μM of inhibitors (final concentrations) was added to the cells. Cells were incubated for additional 48 h before taking measurements on a BioTek Cytation 5 cell imager and microplate reader. 10×10 pictures/well were taken at 20× magnification under FITC channel and the punctate counting was carried out using built-in software. Each data set was collected from technical replicates on at least two different days. Every experiment included control wells (no tau, no heparin, and no NAP). All data plots were generated with SigmaPlot. Error bars shown are standard deviation from technical replicates.

[4] = system: HEK293 cells stably expressing tau-RD (P301L/V337M)-YFP; format: cell-based, human; conditions: 36 h
Method: TauP301L was diluted to a final concentration of 10 μM in an aggregation buffer containing 100 mM sodium acetate, 10 μM heparin, 2 mM DTT, pH 7.4. The protein was incubated in a microcentrifuge tube for 4 days at 37° C. with a shaking speed of 100 rpm. Control vials included those wherein (1) buffer was added in place of tauP301L, and (2) buffer was added in place of heparin.
as §1
TauP301L fibrils were prepared as described above (see section on fibril formation) and sonicated for 3 minutes prior to use in this assay. In a reaction volume of 40 μL, 8 μL of fibrils was diluted with 31 μL of low-serum Opti-MEM® (Gibco) media and then mixed with 1 μL of NAPs (DMSO concentration was constant across various concentration of inhibitors). […] IC50 values were calculated by fitting the data set using sigmoidal logistic 4 parameter equation. Error bars represent standard deviation from technical replicates. % Tau infection was calculated using following formula: […]

[5] = Human serum stability assay; format: in vitro ADME; conditions: 25% human serum, 24 h
Method: The stability of NAPs in 25% human serum (Millipore Sigma) was assessed by HPLC. The reaction was started by adding NAPs at a final concentration of 500 μM in pre-warmed serum. The mixture was incubated at 37° C. for 24 h. A 100 μL aliquot of the reaction mixture was taken out at 0 h, 1 h, 4 h, and 24 h and was mixed with an equal volume of 20% TCA and incubated at 4° C. for 15 minutes to precipitate serum proteins. After centrifugation at 12000 rpm for 10 min, the supernatant was collected and mixed with an internal standard (1 mg/mL of Cbz-Tyr-OH dissolved in MeCN) and stored at −20° C. Samples were then analyzed by LC-MS and the percentage of peptide remaining was calculated by integrating peaks.

[6] = system: human neuroblastoma SH-SY5Y cells; experiment: MTT cell viability assay on SH-SY5Y cells; format: cell-based; conditions: 10 μM and 50 μM, 48 h
Method: MTT cell viability assays were carried out on both HEK293 cells stably expressing tau-RD (LM)-YFP and SH-SY5Y cells. Cells were cultured in DMEM/F12 complete media containing 10% FBS, 1% penicillin/streptomycin and 1% Glutamax™ (Gibco) in a 75 cm^2 cell culture flask under 5% CO2 at 37° C. Cell viability was determined using MTT reduction assay. Briefly, 15,000 cells/well were plated in a 96 well tissue culture plate and were allowed to incubate overnight in a CO2 incubator. The media was aspirated, and the NAP inhibitor prepared in complete media was added at a given final concentration. The plate was then allowed to incubate for additional 48 h in a CO2 incubator and the media was aspirated again and replaced with 0.5 mg/mL of MTT prepared in complete media and incubated for additional 3 h. Media was then replaced with DMSO to dissolve formazan crystals and the absorbance was measured at 570 nm using Synergy H1 micro plate reader. Each data set were collected from technical replicates on at least two different days.

[7] = biological target: T1, synthetic, full-length Aβ42 (Homo sapiens, UniProt P05067); experiment: ThT fluorescence assay with Aβ42; format: biochemical; conditions: Aβ42 40 μM
T1 construct: synthetic, full-length Aβ42 (40 μM)
Method: A peptidomimetic approach to tau inhibition offers prospects for achieving selectivity over other amyloids rich in β structure. As a preliminary test, the best-performing tau mimic, compound 12 (EG09; SEQ ID NO: 18), was selected and its effect on Aβ42 aggregation in vitro was determined (FIG. 11).

T1 sequence (P05067 672-713 limits assumed): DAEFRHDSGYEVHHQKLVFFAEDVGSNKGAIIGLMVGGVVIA

Compound | effect on end-point ThT fluorescence of tauP301L (inhibition of Tau aggregation) [1] | fibril morphology / inhibition of Tau fibril formation by TEM [2] | further results
CC[C@H](C)[C@@H](C(=O)N[C@H](C(=O)N(N)[C@@H](Cc1ccc(O)cc1)C(=O)N[C@@H](CCCCN)C(N)=O)C(C)C)N(N)C(=O)[C@H](CCC(N)=O)NC(=O)[C@@H](NC(C)=O)C(C)C [Compound 12, Ac-Val-Gln-aIle-Val-aTyr-Lys-NH2] (Ac-VQ[X1]V[X2]K-NH2) | significantly reduce | non-fibrillary amorphous aggregates; also recorded: non-fibrillary, amorphous aggregates | seeding capacity of monomeric tauP301L pre-treated with inhibitor ([3]; 0.009 μM inhibitor): less pronounced; seeding capacity of monomeric tauP301L pre-treated with inhibitor ([3]; 1.9 μM inhibitor): significantly reduced seeding capacity; IC50 [4]: ~5 µM; stability in human serum [5]: remarkably stable; also recorded: serum stable; cytotoxic effect, MTT assay [6]: no appreciable toxicity; also recorded: non-cytotoxic; also recorded: non-toxic to neuronal cells; effect on lag-time of Aβ42 aggregation ([7]; any of the concentrations tested): no effect on lag-time; inhibitory effect on Aβ42 aggregation ([7]; compound up to 4-fold molar excess (160 μM), ThT): no inhibitory effect
CC[C@H](C)[C@H](NC(=O)[C@H](CCC(N)=O)NC(=O)[C@@H](NC(C)=O)C(C)C)C(=O)N(N)[C@H](C(=O)N[C@@H](Cc1ccc(O)cc1)C(=O)N(N)[C@@H](CCCCN)C(N)=O)C(C)C [Compound 13, Ac-Val-Gln-Ile-aVal-Tyr-aLys-NH2] (Ac-VQI[X3]Y-{N(NH2)LysNH2}) | – | – | IC50 [4]: ~5 µM; stability in human serum [5]: remarkably stable; cytotoxic effect, MTT assay [6]: no appreciable toxicity; also recorded: non-cytotoxic
Ac-Val-Gln-Ile-Val-Tyr-aLys-NH2 (Ac-VQIVY[N(NH2)Lys]-NH2; SMILES CC[C@H](C)[C@H](NC(=O)[C@H](CCC(N)=O)NC(=O)[C@@H](NC(C)=O)C(C)C)C(=O)N[C@H](C(=O)N[C@@H](Cc1ccc(O)cc1)C(=O)N(N)[C@@H](CCCCN)C(N)=O)C(C)C) [Compound 9] | – | did not inhibit Tau fibril formation | –
Ac-Val-Gln-aIle-Ile-Asn-Lys-NH2 (Ac-VQ[aIle′]INK-NH2; SMILES CC[C@H](C)[C@H](NC(=O)[C@H]([C@@H](C)CC)N(N)C(=O)[C@H](CCC(N)=O)NC(=O)[C@@H](NC(C)=O)C(C)C)C(=O)N[C@@H](CC(N)=O)C(=O)N[C@@H](CCCCN)C(N)=O) [Compound 2] | significantly reduce | short, immature rod-like fibrils | –
Ac-Val-Gln-aIle-Val-Tyr-Lys-NH2 (Ac-VQ[aIle′]VYK-NH2; SMILES CC[C@H](C)[C@@H](C(=O)N[C@H](C(=O)N[C@@H](Cc1ccc(O)cc1)C(=O)N[C@@H](CCCCN)C(N)=O)C(C)C)N(N)C(=O)[C@H](CCC(N)=O)NC(=O)[C@@H](NC(C)=O)C(C)C) [Compound 6] | significantly reduce | short, immature rod-like fibrils | –
Ac-aVal-Gln-Ile-Val-Tyr-Lys-NH2 (Ac-[aVal]QIVYK-NH2; SMILES CC[C@H](C)[C@H](NC(=O)[C@H](CCC(N)=O)NC(=O)[C@H](C(C)C)N(N)C(C)=O)C(=O)N[C@H](C(=O)N[C@@H](Cc1ccc(O)cc1)C(=O)N[C@@H](CCCCN)C(N)=O)C(C)C) [Compound 5] | significantly reduce | short, immature rod-like fibrils | –
Ac-aVal-Gln-aIle-Ile-Asn-Lys-NH2 (Ac-[aVal]Q[aIle′]INK-NH2; SMILES CC[C@H](C)[C@H](NC(=O)[C@H]([C@@H](C)CC)N(N)C(=O)[C@H](CCC(N)=O)NC(=O)[C@H](C(C)C)N(N)C(C)=O)C(=O)N[C@@H](CC(N)=O)C(=O)N[C@@H](CCCCN)C(N)=O) [Compound 4] | significantly reduce | non-fibrillary amorphous aggregates; also recorded: non-fibrillary, amorphous aggregates | seeding capacity of monomeric tauP301L pre-treated with inhibitor ([3]; 0.009 μM inhibitor): far weaker anti-seeding activity; seeding capacity of monomeric tauP301L pre-treated with inhibitor ([3]; 1.9 μM inhibitor): far weaker anti-seeding activity
Ac-aVal-Gln-aIle-Val-Tyr-Lys-NH2 (Ac-[aVal]Q[aIle′]VYK-NH2; SMILES CC[C@H](C)[C@@H](C(=O)N[C@H](C(=O)N[C@@H](Cc1ccc(O)cc1)C(=O)N[C@@H](CCCCN)C(N)=O)C(C)C)N(N)C(=O)[C@H](CCC(N)=O)NC(=O)[C@H](C(C)C)N(N)C(C)=O) [Compound 10] | – | did not inhibit Tau fibril formation | –
Ac-aVal-Gln-aIle-Val-aTyr-Lys-NH2 [Compound 14] | – | did not inhibit Tau fibril formation | –
